Measured values reported in patent publication US20070066512A1, “Methods and compositions using immunomodulatory compounds for the treatment of disorders associated with low plasma leptin levels” (priority 2005, published 2007).

Tests used:
[1] = test system: adipocytes differentiated from Human Mesenchymal Stem Cell (MSC); experiment: Triglyceride accumulation in MSC-derived adipocytes (microscopy, Oil Red O staining); format: cell-based; details: for triglyceride accumulation quantified by Oil Red O staining (FIG. 2B): cells cultured with compound vs DMSO
Description: (§1) Human Mesenchymal Stem Cell (MSC) and adipocyte differentiation media were obtained from Cambrex (Walkersville, Md.). MSCs were seeded in 24 well plates at 40,000 cells per well in MSC Basic Medium (MSCBM), supplemented with 10% serum and expanded for 7 days. At 100% of confluence, three cycles of induction/maintenance stimulated adipogetic differentiation. Each cycle consisted feeding MSCs with Adipogenic Induction Medium (AIM) for 3 days, followed by 1 day of culture in Adipogenic Maintenance Medium (AMM). AIM and AMM contained 10% serum, Pen-Sterep and L-Glu, supplemented with insulin, dexamethasone, indomethacin and IBMX, or insulin only. After 3 complete cycles of induction/maintenance, MSCs are cultured for 3 more days in AMM and analyzed.
(§2) To study the effects of immunomodulatory compounds on adipocyte differentiation, MSCs were differentiated in the presence of DMSO or varying concentrations of an immunomodulatory compound. DMSO and immunomodulatory compounds were added to the medium during the differentiation and maintenance steps. Phenotypic characterization of the cells for adipocyte markers, such as triglyceride content and adipokine secretion, was performed.
Fat content in adipocyte was quantified by Oil Red O staining. Cells were washed with PBS and fixed with 3.7% formaldehyde for 15 minutes. Lipid vacuoles were stained with 0.5% Oil Red O in 60% isopropanol for 30 minutes at 37° C. Cells were then washed three times with water and Oil Red O content was dissolved into 100% propanol. The optical density of the solution was measured at 510 nm.

adiponectin mRNA = experiment: Northern blot of adiponectin mRNA in MSC-derived adipocytes; format: cell-based, Human; details: adipocytes treated with compound vs DMSO; GAPDH control unchanged
Description: as §1, §2
(§3) RNAs from MSC-derived adipocytes were isolated with RNeasy lipid tissue kit (Qiagen, Valencia, Calif.). […]

MSCs [2] = experiment: MSC proliferation (BrdU incorporation assay); format: cell-based, Human; details: MSCs treated for 2 days vs DMSO
Description: (§4) MSC viability was assayed using cell proliferation kit II (XTT) (Roche, Indianapolis, Ind.). MSC proliferation was assayed using 5-bromo-2′-deoxy-uridine labeling and detection kit III (BrdU) (Roche, Indianapolis, Ind.). MSCs have been seeded in 96 well plates and expanded for 2 days in presence of DMSO or varying concentrations of an immunomodulatory compound. XTT and BrdU were added to the cells for 20 hours. The viability and proliferation of MSCs were assayed following manufacturer's instructions.

[3] = test system: adiponectin secretion in adipocytes; experiment: Adiponectin secretion of adipocytes (quantikine human adiponectin immunoassay); format: cell-based; details: adipocytes differentiated in presence of compound
Description: as §1
To study the effects of immunomodulatory compounds on adipocyte differentiation, MSCs were differentiated in the presence of DMSO or varying concentrations of an immunomodulatory compound. […]
Leptin and adiponectin were measured using the quantikine human leptin and human adiponectin immunoassay kits (R&D Systems, Minneapolis, Minn.). To measure leptin secretion, 100 μl of medium was collected from the cell plates, diluted 2 or 5 times depending on the collecting time during the differentiation process, and analyzed following the manufacturer's protocols. […] For adiponectin secretion, 50 μl of medium was collected and directly analyzed.

leptin mRNA = experiment: Northern blot of leptin mRNA in MSC-derived adipocytes; format: cell-based, Human; details: adipocytes treated with compound vs DMSO; GAPDH control unchanged
Description: as §1, §2, §3

[4] = test system: leptin secretion in adipocytes; experiment: Leptin secretion of adipocytes (quantikine human leptin immunoassay); format: cell-based; details: for concentration giving maximum of dose dependent leptin secretion response: adipocytes differentiated in presence of compound; for dexamethasone induced leptin secretion (FIG. 3C): dexamethasone added to the cells for 15 hours at the end of differentiation
Description: as §1, §2
Leptin and adiponectin were measured using the quantikine human leptin and human adiponectin immunoassay kits (R&D Systems, Minneapolis, Minn.). To measure leptin secretion, 100 μl of medium was collected from the cell plates, diluted 2 or 5 times depending on the collecting time during the differentiation process, and analyzed following the manufacturer's protocols. Results were corrected for the dilution factor. For adiponectin secretion, 50 μl of medium was collected and directly analyzed.

MSCs [5] = experiment: MSC viability (XTT assay); format: cell-based, Human; details: MSCs treated for 2 days vs DMSO
Description: as §4

[6] = cited from earlier work; for interconversion of polymorphic form: aqueous solvent systems or higher relative humidities; for hygroscopicity of polymorphic form: crystalline form of 3-(4-amino-1-oxo-1,3 dihydro-isoindol-2-yl)-piperidene-2,6-dione

SMILES | triglyceride accumulation quantified by Oil Red O staining (FIG. 2B) [1] | level of adiponectin mRNAs (northern blot, FIG. 5) (adiponectin mRNA) | cell proliferation (BrdU incorporation, FIG. 6) (MSCs [2]) | adiponectin secretion vs cells differentiated in DMSO (FIG. 4) [3] | level of leptin mRNAs (northern blot, FIG. 5) (leptin mRNA) | concentration giving maximum of dose dependent leptin secretion response [4] | dexamethasone induced leptin secretion (FIG. 3C) [4] | cell viability (XTT, FIG. 6) (MSCs [5]) | interconversion of polymorphic form [6] | hygroscopicity of polymorphic form [6] | further results
Nc1cccc2c1CN(C1CCC(=O)NC1=O)C2=O (centres unmarked) [1-oxo-(2,6-dioxopiperidin-3-yl)-4-aminoisoindoline] | no significant difference | dose-dependent decrease | neither 1-oxo-(2,6-dioxopiperidin-3-yl)-4-aminoisoindoline nor 1,3-dioxo-(2,6-dioxopiperidin-3-yl)-4-aminoisoindoline caused significant change | lower levels of adiponectin secretion | dose-dependently increase | 25 µM | enhanced dexamethasone induced leptin secretion | neither 1-oxo-(2,6-dioxopiperidin-3-yl)-4-aminoisoindoline nor 1,3-dioxo-(2,6-dioxopiperidin-3-yl)-4-aminoisoindoline caused significant change |  |  | ability of the cells to accumulate triglyceride (microscopy, FIG. 2A) ([1]; cells differentiated with compound vs DMSO, lipid vacuoles observed): does not alter the ability of the cells to accumulate triglyceride; leptin secretion vs cells differentiated in DMSO (FIG. 3A) ([4]; adipocytes differentiated in presence of 2.5, 10, 25, or 50 μM): secreted higher levels of leptin
Nc1cccc2c1C(=O)N(C1CCC(=O)NC1=O)C2=O (centres unmarked) [1,3-dioxo-(2,6-dioxopiperidin-3-yl)-4-aminoisoindoline] | no significant difference | dose-dependent decrease | neither 1-oxo-(2,6-dioxopiperidin-3-yl)-4-aminoisoindoline nor 1,3-dioxo-(2,6-dioxopiperidin-3-yl)-4-aminoisoindoline caused significant change | lower levels of adiponectin secretion | dose-dependently increase | 10 µM | enhanced dexamethasone induced leptin secretion | neither 1-oxo-(2,6-dioxopiperidin-3-yl)-4-aminoisoindoline nor 1,3-dioxo-(2,6-dioxopiperidin-3-yl)-4-aminoisoindoline caused significant change |  |  | leptin secretion vs cells differentiated in DMSO (FIG. 3B) ([4]; adipocytes differentiated in presence of 0. 1, 1, 2.5, or 10 μM): a similar result was observed
Nc1cccc2c1CN(C1CCC(=O)NC1=O)C2=O (centres unmarked) [Form C, 3-(4-amino-1-oxo-1,3 dihydro-isoindol-2-yl)-piperidene-2,6-dione] |  |  |  |  |  |  |  |  | can convert to Form B at higher relative humidities | not hygroscopic below about 85% RH | 
Nc1cccc2c1CN(C1CCC(=O)NC1=O)C2=O (centres unmarked) [Form D, 3-(4-amino-1-oxo-1,3 dihydro-isoindol-2-yl)-piperidene-2,6-dione] |  |  |  |  |  |  |  |  | will typically convert to Form B when stressed at higher relative humidities | either weakly or not hygroscopic | 
Nc1cccc2c1CN(C1CCC(=O)NC1=O)C2=O (centres unmarked) [Form B, 3-(4-amino-1-oxo-1,3 dihydro-isoindol-2-yl)-piperidene-2,6-dione] |  |  |  |  |  |  |  |  | converts to Form E in aqueous solvent systems |  | 
Nc1cccc2c1CN(C1CCC(=O)NC1=O)C2=O (centres unmarked) [Form A, 3-(4-amino-1-oxo-1,3 dihydro-isoindol-2-yl)-piperidene-2,6-dione] |  |  |  |  |  |  |  |  |  | weakly or not hygroscopic | relative stability of polymorphic form ([6]; Form A: among anhydrous polymorphs, Form E: in aqueous solvent systems): most thermodynamically stable anhydrous polymorph
